In experiment [1] the target is T1, Cyclin-G-associated kinase (Homo sapiens) (UniProt O14976).
T1 sequence (whole entry): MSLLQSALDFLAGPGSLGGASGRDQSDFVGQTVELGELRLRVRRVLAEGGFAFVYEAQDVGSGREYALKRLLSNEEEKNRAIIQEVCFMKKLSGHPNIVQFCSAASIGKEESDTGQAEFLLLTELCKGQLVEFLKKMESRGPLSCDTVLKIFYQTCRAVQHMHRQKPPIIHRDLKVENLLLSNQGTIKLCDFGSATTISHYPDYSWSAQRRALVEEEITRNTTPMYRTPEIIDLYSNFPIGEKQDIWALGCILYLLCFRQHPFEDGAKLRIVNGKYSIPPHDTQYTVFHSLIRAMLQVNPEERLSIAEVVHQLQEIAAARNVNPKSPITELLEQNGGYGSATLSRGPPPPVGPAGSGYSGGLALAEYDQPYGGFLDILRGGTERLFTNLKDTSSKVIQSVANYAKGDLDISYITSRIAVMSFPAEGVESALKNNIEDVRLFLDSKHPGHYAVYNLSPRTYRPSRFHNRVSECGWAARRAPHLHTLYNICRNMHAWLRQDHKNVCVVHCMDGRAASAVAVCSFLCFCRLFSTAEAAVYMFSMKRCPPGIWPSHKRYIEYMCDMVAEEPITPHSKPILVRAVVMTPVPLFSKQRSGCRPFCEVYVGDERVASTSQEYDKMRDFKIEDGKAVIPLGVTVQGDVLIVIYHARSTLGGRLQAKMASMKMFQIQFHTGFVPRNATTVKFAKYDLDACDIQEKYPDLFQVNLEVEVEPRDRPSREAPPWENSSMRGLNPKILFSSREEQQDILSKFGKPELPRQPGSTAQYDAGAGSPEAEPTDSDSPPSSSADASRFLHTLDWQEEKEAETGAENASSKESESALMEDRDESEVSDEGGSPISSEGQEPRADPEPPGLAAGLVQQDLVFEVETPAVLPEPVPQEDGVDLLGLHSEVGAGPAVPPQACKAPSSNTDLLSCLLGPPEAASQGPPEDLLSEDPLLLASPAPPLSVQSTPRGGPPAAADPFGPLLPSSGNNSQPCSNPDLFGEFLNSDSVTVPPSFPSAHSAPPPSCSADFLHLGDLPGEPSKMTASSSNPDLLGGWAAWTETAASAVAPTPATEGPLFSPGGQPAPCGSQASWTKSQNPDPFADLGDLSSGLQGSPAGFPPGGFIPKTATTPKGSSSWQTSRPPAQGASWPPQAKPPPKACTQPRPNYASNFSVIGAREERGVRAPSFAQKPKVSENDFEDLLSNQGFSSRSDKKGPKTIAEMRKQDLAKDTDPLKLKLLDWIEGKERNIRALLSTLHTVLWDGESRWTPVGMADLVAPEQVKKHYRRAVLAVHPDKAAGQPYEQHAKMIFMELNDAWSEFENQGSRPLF
In words: Selectivity interaction (LanthaScreen Eu Kinase Binding Assay) EUB0001632a GAK. Particulars: at 10 µM. In general terms: In TR-FRET formats the signal depends on donor and acceptor labels being close together.

Experiment [2] deals with Serine/threonine-protein kinase Nek6 (Homo sapiens) (UniProt Q9HC98). To be noted: at 10 µM.
Chain of Serine/threonine-protein kinase Nek6 (Homo sapiens) (Q9HC98 whole entry): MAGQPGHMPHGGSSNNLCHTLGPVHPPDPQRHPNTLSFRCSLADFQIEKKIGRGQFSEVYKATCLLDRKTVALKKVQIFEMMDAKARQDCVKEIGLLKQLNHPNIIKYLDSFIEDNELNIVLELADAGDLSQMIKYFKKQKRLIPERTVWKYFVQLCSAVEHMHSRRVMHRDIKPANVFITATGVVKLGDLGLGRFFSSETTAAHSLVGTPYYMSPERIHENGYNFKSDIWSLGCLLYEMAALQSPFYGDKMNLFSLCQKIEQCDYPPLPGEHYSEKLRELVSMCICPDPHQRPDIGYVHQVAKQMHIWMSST
Experiment [3] addresses T2, Mitogen-activated protein kinase kinase kinase 3 (Homo sapiens) (UniProt Q99759).
T2 sequence (whole entry): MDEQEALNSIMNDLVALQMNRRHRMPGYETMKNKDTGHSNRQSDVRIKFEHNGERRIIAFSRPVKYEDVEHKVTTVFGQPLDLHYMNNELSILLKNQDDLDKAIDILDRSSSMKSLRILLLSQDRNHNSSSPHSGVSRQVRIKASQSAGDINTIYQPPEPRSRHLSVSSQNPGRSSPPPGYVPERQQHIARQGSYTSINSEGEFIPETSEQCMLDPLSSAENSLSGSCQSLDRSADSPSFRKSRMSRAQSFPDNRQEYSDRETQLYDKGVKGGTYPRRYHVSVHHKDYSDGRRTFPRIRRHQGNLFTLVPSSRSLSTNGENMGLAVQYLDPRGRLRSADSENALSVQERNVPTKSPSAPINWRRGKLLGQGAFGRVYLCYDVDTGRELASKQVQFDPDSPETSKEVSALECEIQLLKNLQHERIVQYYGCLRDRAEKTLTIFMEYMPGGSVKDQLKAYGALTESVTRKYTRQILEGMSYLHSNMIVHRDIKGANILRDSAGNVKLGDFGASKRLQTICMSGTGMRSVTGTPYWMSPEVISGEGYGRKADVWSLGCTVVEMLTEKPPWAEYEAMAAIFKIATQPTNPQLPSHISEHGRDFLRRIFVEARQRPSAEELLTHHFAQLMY
In words: Selectivity interaction (KinomeScan (DiscoverX)) EUB0001079a MAP3K3. To be noted: at 1 µM.

Another experiment has as its target Estrogen receptor (Homo sapiens, UniProt P03372). In words: Selectivity interaction (Estrogen alpha receptor binding assay, human recombinant ) EUB0000877a ESR1.
The target in experiment [4] is 5'-AMP-activated protein kinase catalytic subunit alpha-1 (Homo sapiens, UniProt Q13131). Description: Selectivity interaction (ActivX KiNativ screen (kinase selectivity in THP-1 cell lysates)) EUB0000639a PRKAA1. The format is subcellular. Particulars: lysate, at 5 µM.
Chain of 5'-AMP-activated protein kinase catalytic subunit alpha-1 (Q13131 whole entry, looked up): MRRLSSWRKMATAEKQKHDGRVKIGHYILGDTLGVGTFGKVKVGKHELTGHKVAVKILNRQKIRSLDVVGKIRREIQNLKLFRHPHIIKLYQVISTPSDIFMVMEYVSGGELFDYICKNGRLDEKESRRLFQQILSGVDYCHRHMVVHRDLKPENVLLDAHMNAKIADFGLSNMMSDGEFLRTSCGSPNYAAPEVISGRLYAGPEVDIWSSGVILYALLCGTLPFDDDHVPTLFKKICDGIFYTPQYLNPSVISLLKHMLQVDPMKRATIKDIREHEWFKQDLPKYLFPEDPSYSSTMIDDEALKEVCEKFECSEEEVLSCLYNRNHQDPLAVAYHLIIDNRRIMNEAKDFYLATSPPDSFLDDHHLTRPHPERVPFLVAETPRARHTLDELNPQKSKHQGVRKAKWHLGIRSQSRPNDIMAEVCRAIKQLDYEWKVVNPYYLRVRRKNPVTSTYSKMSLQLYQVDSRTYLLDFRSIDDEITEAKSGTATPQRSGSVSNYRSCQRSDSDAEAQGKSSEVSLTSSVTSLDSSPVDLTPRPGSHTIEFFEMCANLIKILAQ
In experiment [5] the target is Serine/threonine-protein kinase PAK 6 (Homo sapiens) (UniProt Q9NQU5). In words: Selectivity interaction (KinomeScan (DiscoverX)) EUB0001049a PAK6. To be noted: at 1 µM.
Chain of Serine/threonine-protein kinase PAK 6 (Homo sapiens) (Q9NQU5 whole entry, looked up): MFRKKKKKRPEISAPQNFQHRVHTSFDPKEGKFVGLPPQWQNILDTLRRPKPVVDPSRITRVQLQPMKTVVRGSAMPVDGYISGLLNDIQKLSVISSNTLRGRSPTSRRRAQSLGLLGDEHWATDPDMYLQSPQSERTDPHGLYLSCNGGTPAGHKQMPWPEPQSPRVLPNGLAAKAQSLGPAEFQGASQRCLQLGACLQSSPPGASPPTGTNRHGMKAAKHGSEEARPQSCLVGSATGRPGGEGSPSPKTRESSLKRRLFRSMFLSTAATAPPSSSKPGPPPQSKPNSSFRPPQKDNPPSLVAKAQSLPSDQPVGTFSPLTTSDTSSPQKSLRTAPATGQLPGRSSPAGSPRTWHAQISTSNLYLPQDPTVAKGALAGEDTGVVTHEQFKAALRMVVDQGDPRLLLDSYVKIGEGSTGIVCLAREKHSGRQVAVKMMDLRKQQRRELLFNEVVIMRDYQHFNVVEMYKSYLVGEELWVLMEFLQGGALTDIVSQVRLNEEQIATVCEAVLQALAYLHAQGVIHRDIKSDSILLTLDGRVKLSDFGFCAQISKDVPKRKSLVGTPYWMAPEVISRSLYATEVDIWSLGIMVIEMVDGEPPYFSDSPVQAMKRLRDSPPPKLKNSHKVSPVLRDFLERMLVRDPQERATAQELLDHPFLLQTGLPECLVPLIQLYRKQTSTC
Experiment [6] addresses Serine/threonine-protein kinase MRCK alpha (Homo sapiens) (UniProt Q5VT25). In words: Selectivity interaction (KinomeScan (DiscoverX)) EUB0000695a CDC42BPA. Particulars: at 100 nM.
In experiment [7] the target is Leukotriene B4 receptor 1 (Homo sapiens) (UniProt Q15722). Description: Selectivity interaction (Eurofins CEREP Diversity Profile (receptors and ion channels)) EUB0000279b LTB4R. To be noted: at 10 µM.
Chain of Leukotriene B4 receptor 1 (Homo sapiens) (Q15722 whole entry): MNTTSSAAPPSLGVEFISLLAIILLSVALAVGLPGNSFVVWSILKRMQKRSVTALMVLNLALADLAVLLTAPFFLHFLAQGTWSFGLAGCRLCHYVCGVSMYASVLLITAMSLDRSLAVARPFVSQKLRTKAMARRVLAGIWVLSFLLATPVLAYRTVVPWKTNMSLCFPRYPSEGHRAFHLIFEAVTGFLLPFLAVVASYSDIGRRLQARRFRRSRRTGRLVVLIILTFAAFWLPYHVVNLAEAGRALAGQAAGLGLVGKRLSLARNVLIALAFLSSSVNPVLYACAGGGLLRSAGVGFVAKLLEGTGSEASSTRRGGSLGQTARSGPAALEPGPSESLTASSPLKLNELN
For experiment [8], the target named is Interleukin-1 receptor-associated kinase 1 (Homo sapiens) (UniProt P51617). Description: Selectivity interaction (KinomeScan (DiscoverX)) EUB0000045b IRAK1.
Chain of Interleukin-1 receptor-associated kinase 1 (Homo sapiens) (P51617 whole entry, looked up): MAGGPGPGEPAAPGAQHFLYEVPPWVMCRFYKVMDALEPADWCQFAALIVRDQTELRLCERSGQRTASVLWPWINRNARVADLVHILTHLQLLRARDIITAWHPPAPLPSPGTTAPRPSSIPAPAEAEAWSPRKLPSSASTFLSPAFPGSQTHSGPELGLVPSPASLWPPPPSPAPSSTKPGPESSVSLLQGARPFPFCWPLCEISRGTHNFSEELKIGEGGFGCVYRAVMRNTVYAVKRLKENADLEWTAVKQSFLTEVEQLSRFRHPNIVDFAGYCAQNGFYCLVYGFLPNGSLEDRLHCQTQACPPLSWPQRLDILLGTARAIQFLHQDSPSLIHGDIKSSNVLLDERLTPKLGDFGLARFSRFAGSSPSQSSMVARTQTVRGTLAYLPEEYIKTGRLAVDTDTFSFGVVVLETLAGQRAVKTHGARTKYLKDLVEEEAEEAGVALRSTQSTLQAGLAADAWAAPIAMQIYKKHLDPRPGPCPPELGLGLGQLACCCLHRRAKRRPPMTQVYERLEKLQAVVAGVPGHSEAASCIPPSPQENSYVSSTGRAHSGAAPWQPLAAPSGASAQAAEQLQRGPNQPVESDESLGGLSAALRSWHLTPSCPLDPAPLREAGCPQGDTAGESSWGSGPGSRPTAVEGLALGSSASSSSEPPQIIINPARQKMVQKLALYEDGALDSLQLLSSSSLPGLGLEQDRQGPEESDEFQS
The target in experiment [9] is Tyrosine-protein kinase BTK (Homo sapiens, UniProt Q06187). In words: Selectivity interaction (KinomeScan (DiscoverX)) EUB0000595a BTK. Particulars: at 10 µM.
Chain of Tyrosine-protein kinase BTK (Q06187 whole entry): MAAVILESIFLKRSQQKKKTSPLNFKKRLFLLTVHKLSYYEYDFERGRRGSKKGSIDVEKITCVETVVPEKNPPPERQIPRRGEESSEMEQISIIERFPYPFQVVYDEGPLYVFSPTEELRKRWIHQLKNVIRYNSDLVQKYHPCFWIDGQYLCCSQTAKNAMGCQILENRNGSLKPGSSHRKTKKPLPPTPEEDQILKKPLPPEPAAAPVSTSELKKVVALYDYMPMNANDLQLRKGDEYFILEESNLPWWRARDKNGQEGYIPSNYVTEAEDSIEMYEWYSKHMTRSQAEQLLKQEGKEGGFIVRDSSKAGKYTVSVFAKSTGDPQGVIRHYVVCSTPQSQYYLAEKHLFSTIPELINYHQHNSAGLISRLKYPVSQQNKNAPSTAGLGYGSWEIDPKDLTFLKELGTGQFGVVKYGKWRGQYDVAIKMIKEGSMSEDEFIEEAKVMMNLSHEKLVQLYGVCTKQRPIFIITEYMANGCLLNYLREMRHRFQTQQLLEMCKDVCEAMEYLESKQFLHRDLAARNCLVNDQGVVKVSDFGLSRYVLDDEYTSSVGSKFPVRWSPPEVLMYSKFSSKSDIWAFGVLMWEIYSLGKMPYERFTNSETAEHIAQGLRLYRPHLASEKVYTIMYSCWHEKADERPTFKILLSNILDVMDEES

The values below come from ChEMBL document CHEMBL5465560, “Selectivity Literature for EUbOPEN Chemogenomic Library” (2024).

Chain of Estrogen receptor (P03372 whole entry): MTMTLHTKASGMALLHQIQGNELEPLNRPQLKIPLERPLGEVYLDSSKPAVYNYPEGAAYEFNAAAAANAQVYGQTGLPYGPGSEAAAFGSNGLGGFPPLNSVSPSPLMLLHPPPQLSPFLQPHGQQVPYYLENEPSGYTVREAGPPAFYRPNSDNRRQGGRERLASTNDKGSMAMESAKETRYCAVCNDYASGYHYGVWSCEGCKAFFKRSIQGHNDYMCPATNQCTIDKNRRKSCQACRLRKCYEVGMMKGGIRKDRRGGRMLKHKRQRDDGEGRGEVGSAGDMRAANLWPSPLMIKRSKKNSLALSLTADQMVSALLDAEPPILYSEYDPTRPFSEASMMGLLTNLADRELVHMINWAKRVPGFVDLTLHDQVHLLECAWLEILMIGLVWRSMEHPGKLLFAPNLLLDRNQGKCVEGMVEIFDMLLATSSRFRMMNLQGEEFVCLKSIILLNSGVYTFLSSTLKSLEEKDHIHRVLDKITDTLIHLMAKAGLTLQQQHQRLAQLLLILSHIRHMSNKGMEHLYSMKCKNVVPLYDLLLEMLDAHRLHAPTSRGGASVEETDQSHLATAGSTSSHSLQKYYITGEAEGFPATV

`Cn1cc(-n2cnc3c(NCc4nc5cc(Cl)c(Cl)cc5[nH]4)nc(N4CCOCC4)nc32)cn1`: in [1], the % of inhibition was -16.7%.
For the compound `Cc1cc([C@@H](C)Nc2ccccc2C(=O)O)c2nc(N3CCOCC3)cc(=O)n2c1` [AZD-6482], the % of control in [2] is 100%.
In the case of `Nc1cnc(N2CCc3cc(S(=O)(=O)Nc4c(F)cc(Cl)cc4F)cc(N4CCCC4=O)c32)nc1` [TP-020n], the % of control in experiment [3] amounted to 97%.
For orientation: IC50 means the concentration that gives 50% inhibition. As to `CCC(=O)N1CC[C@H](Nc2ncnc3c2CN(c2cnc(OC)c(C(F)(F)F)c2)CC3)C1` [LENIOLISIB], the IC50 on Estrogen receptor was above 30 µM.
In the case of `CC[C@@H]1[C@H](F)C(=O)N[C@@H]1COc1nccc2cc(C(N)=O)c(OC)cc12` [ZIMLOVISERTIB], in experiment [4], the % of inhibition turned out to be 21.9%.
As to `COc1cc(Nc2nc(C)cc(-c3cnn4nc(OC)ccc34)n2)cc(C(F)(F)F)c1`, the % of control in experiment [5] was 75%.
In experiment [6], `Cc1cc(F)c(C(=O)Nc2cccc(-c3nncn3C(C)C)n2)cc1-n1cnc(C2CC2)c1` came in with a % of control of 100%.
On to `CC(=O)c1cc(-c2ccccc2OCC2CC2)c2ncccn12`, for which, in experiment [7], the % of control was found to be 96%.
Consider `C=CC(=O)Nc1cc(-n2c(=O)ccc3cnc4ccc(-c5ccc(NS(C)(=O)=O)cc5)cc4c32)ccc1C`, for which the % of control in [8] (at 1 µM) worked out at 72%; in experiment [8] (at 10 µM), 60%.
In experiment [9], `COCC(=O)NC/C=C/c1ccc2ncnc(Nc3ccc(Oc4ccc(C)nc4)c(C)c3)c2c1` [CP-724714] came in with a % of control of 68%.
